Test systems include COLO 205; EKVX; HCC 2998; Hs-578T; KM12; LOX IMVI; M14; MDA-N; MOLT-4; NCI-H226; NCI-H522; NCI/ADR-RES; OVCAR-3; SK-OV-3; SNB-75; T47D; U-251; UACC-62; SF-539; SK-MEL-2.
Holding throughout (experiment): NCI-60 cell line screen, 48 h

Each structure is given as a SMILES string. Several values for one entry are separate records, joined by “and”; a condition that tells them apart may be missing. Equal values may be shown once.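 Five concentrations, 48 hours, 96-well plates. GI50: concentration for 50% inhibition of growth.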 Activity calls are given as the source filed them. Rule as the data show it: active = GI50 up to about 1.1 µM and inactive = higher. Where only a bound is given, the exact number is not on record here.

Regarding `CNC(=O)C1CCCN1C(=O)C(Cc1c[nH]cn1)NC(=O)C1CCC(=O)N1` (centres undefined), the GI50 in the assay with COLO 205, with EKVX, in the assay with HCC 2998, in the assay on Hs-578T, with KM12 and with LOX IMVI was > 100 µM (inactive) throughout. For the same compound, the GI50 in the assay on M14, in the assay on MDA-N, with MOLT-4, with NCI-H226, with NCI-H522 and in the assay with NCI/ADR-RES was > 100 µM (inactive) throughout. The GI50 in the assay with OVCAR-3, in the assay on SK-OV-3, with SNB-75, with T47D, with U-251 and in the assay with UACC-62 was > 100 µM (inactive) in each case.
With `COc1cccc(-c2cc(O)c3cc(C)cnc3n2)c1`, the GI50 in the assay with COLO 205 is 0.0449 µM (active); in the assay with HCC 2998, 1.51 µM (inactive); with Hs-578T, 0.0495 µM (active); with KM12, 0.0885 µM (active); in the assay on LOX IMVI, 0.0512 µM (active); in the assay on M14, 0.0543 µM (active). The GI50 is 0.0106 µM (active) in the assay with MDA-N; 0.115 µM (active) with MOLT-4; 0.0757 µM (active) in the assay on NCI-H226; 0.0389 µM (active) in the assay with NCI-H522; 0.0295 µM (active) in the assay with NCI/ADR-RES; 0.049 µM (active) in the assay with OVCAR-3. Besides, the GI50 was 0.0371 µM (active) with SF-539; 0.0293 µM (active) in the assay on SK-MEL-2; 0.283 µM (active) in the assay with SK-OV-3; 0.0188 µM (active) in the assay on SNB-75; > 100 µM (inactive) with T47D; 0.0473 µM (active) with U-251. In the assay with UACC-62, the GI50 was 0.0258 µM (active).
For `O=C1/C(=C\c2cccc(Oc3ccccc3)c2)S(=O)(=O)C(c2ccccc2)N1Cc1ccccc1` (centres undefined), the GI50 is 27 µM (inactive) in the assay with COLO 205; 25.8 µM (inactive) in the assay on EKVX; 28.7 µM (inactive) in the assay on HCC 2998; 13.6 µM (inactive) in the assay with Hs-578T; 23.1 µM (inactive) with KM12; 25.1 µM (inactive) in the assay on LOX IMVI. Besides, the GI50 was 27.4 µM (inactive) with M14; 29.6 µM (inactive) in the assay with MDA-N; 0.83 µM (active) with MOLT-4; 13.9 µM (inactive) in the assay on NCI-H522; 19.4 µM (inactive) in the assay with NCI/ADR-RES; 13.8 µM (inactive) in the assay on OVCAR-3. Further, the GI50 in the assay on SF-539 is 36.4 µM (inactive); in the assay on SK-MEL-2 it was 16.3 µM (inactive); in the assay on SK-OV-3, > 100 µM (inactive); with T47D, 32.8 µM (inactive); with U-251, 33.7 µM (inactive); with UACC-62 it was 19.1 µM (inactive).
Consider `Cc1ccc2n(c1)cc(-c1ccc(/C=N/NC(=N)N/N=C/c3ccc(-c4cn5cc(C)ccc5[n+]4C)cc3)cc1)[n+]2C`, for which the GI50 in the assay with COLO 205 was > 100 µM (inactive); in the assay on EKVX, > 100 µM (inactive); in the assay with HCC 2998 it was > 100 µM (inactive); in the assay with Hs-578T, 74.3 µM (inactive); in the assay on KM12, > 100 µM (inactive); with M14 it was 33.9 µM (inactive). The GI50 in the assay on MDA-N was 50.2 µM (inactive); in the assay on MOLT-4, > 100 µM (inactive); in the assay with NCI-H522 it was > 100 µM (inactive); with NCI/ADR-RES it was > 100 µM (inactive); in the assay with SF-539, 39.8 µM (inactive); with SK-OV-3, > 100 µM (inactive). Further, the GI50 is 20.9 µM (inactive) with SNB-75, > 100 µM (inactive) in the assay on T47D and > 100 µM (inactive) in the assay on U-251.
Regarding `OC1c2ccccc2CC12Cc1ccccc1C2` (centres undefined), the GI50 in the assay with COLO 205 was 31.2 µM (inactive); in the assay on EKVX it was > 100 µM (inactive); in the assay with HCC 2998, > 100 µM (inactive); in the assay on Hs-578T it was > 100 µM (inactive); in the assay on KM12 it was > 100 µM (inactive); with LOX IMVI it was > 100 µM (inactive). Besides, the GI50 in the assay on M14 is > 100 µM (inactive); in the assay with MDA-N, > 100 µM (inactive); in the assay with MOLT-4, 24.5 µM (inactive); in the assay on NCI-H226, 0.35 µM (active); with NCI-H522, 62.5 µM (inactive); with NCI/ADR-RES it was 54.7 µM (inactive). The GI50 was 90.2 µM (inactive) with OVCAR-3; > 100 µM (inactive) with SF-539; > 100 µM (inactive) with SK-MEL-2; > 100 µM (inactive) in the assay on SK-OV-3; 61.4 µM (inactive) in the assay on SNB-75; > 100 µM (inactive) in the assay with T47D. Besides, the GI50 in the assay on U-251 was > 100 µM (inactive).
Turning to `C=CCCCCOC1C=CC(OC(C)=O)C(COC(C)=O)O1` (centres undefined), the GI50 is > 100 µM (inactive) in the assay on COLO 205; > 100 µM (inactive) in the assay with EKVX; > 100 µM (inactive) with HCC 2998; 0.324 µM (active) in the assay with Hs-578T; > 100 µM (inactive) with KM12; > 100 µM (inactive) with LOX IMVI. Further, the GI50 with M14, with MDA-N, in the assay with MOLT-4, in the assay on NCI-H226, in the assay with NCI-H522 and with NCI/ADR-RES was > 100 µM (inactive) throughout. Moreover, the GI50 in the assay on OVCAR-3, in the assay on SF-539, in the assay with SK-MEL-2, in the assay with SK-OV-3, in the assay on T47D and with U-251 was > 100 µM (inactive) throughout. Further, the GI50 in the assay on UACC-62 is > 100 µM (inactive).
On to `CC(=O)OCC1OC(SC2=NC(=O)CS2)C(OC(C)=O)C(OC(C)=O)C1OC(C)=O` (centres undefined), for which the GI50 with HCC 2998, in the assay on Hs-578T, with KM12, in the assay on LOX IMVI, in the assay with M14 and in the assay with MDA-N was > 100 µM (inactive) each time. The GI50 with MOLT-4 was 57.7 µM (inactive) and 51.8 µM (inactive); with NCI-H226 it was > 100 µM (inactive); with NCI-H522 it was 47 µM (inactive) and 78.9 µM (inactive); with NCI/ADR-RES it was > 100 µM (inactive); with OVCAR-3 it was > 100 µM (inactive); in the assay on SF-539, > 100 µM (inactive). Moreover, the GI50 in the assay with SK-OV-3 is > 100 µM (inactive); with SNB-75, > 100 µM (inactive); in the assay on T47D, > 100 µM (inactive); with UACC-62, > 100 µM (inactive) and 76.6 µM (inactive).
For `c1ccc(/N=c2/sc3ccccc3s/c2=N/c2ccccc2)cc1`, the GI50 with COLO 205 is 1.92 µM (inactive); in the assay with EKVX, 2.76 µM (inactive); in the assay on HCC 2998 it was 1.84 µM (inactive); in the assay on Hs-578T, 2.68 µM (inactive); with KM12 it was 1.99 µM (inactive); with LOX IMVI, 1.7 µM (inactive). In addition, the GI50 is 1.61 µM (inactive) with MDA-N; 5.18 µM (inactive) in the assay with MOLT-4; 2.88 µM (inactive) in the assay on NCI-H226; 1.56 µM (inactive) in the assay on NCI-H522; 2.67 µM (inactive) with NCI/ADR-RES; 1.88 µM (inactive) in the assay on SF-539. In addition, the GI50 was 1.86 µM (inactive) in the assay with SK-MEL-2; 2.81 µM (inactive) with SK-OV-3; 2.82 µM (inactive) with SNB-75; 1.65 µM (inactive) in the assay with T47D; 1.86 µM (inactive) with U-251; 1.36 µM (inactive) in the assay on UACC-62.
Consider `CCOC(=O)C(C)(C)Oc1ccc(Cl)cc1` [CLOFIBRATE], for which the GI50 in the assay with COLO 205 was 202 µM (inactive); in the assay with EKVX, 201 µM (inactive); in the assay on HCC 2998 it was 505 µM (inactive); in the assay on Hs-578T, 208 µM (inactive); in the assay on KM12, 324 µM (inactive); in the assay on LOX IMVI, 156 µM (inactive). Further, the GI50 was > 1000 µM (inactive) in the assay with M14; 566 µM (inactive) with MDA-N; 161 µM (inactive) with MOLT-4; 188 µM (inactive) with NCI-H226; 435 µM (inactive) in the assay on NCI-H522; 285 µM (inactive) in the assay with NCI/ADR-RES. Moreover, the GI50 with SF-539 was 366 µM (inactive); in the assay with SK-MEL-2, 173 µM (inactive); in the assay on SK-OV-3, 986 µM (inactive); in the assay on SNB-75, 229 µM (inactive); in the assay on T47D, 202 µM (inactive); in the assay with U-251, > 1000 µM (inactive). Also, in the assay on UACC-62, the GI50 was 514 µM (inactive).
Consider `N#C[C@@]12CCCC(=O)[C@@H]1[C@H]1CCC[C@H]12`, for which the GI50 with COLO 205 is 20 µM (inactive); in the assay on EKVX it was 13.2 µM (inactive); in the assay on HCC 2998 it was 15.1 µM (inactive); in the assay with Hs-578T, 31.3 µM (inactive); in the assay on KM12, 13.3 µM (inactive); in the assay on LOX IMVI it was 14.4 µM (inactive). Besides, the GI50 is 12.9 µM (inactive) in the assay with M14; 18.8 µM (inactive) with MDA-N; 21.2 µM (inactive) in the assay on MOLT-4; 20.7 µM (inactive) in the assay with NCI-H226; 22.5 µM (inactive) with NCI/ADR-RES; 10.3 µM (inactive) in the assay on OVCAR-3. For the same compound, the GI50 in the assay with SF-539 is 23.7 µM (inactive); in the assay on SK-MEL-2, 16.9 µM (inactive); in the assay on SK-OV-3 it was 14.7 µM (inactive); with SNB-75, 13.7 µM (inactive); in the assay with T47D it was 20.9 µM (inactive); in the assay on U-251 it was 17.2 µM (inactive). Further, the GI50 with UACC-62 is 22.6 µM (inactive).
On to `Cc1ccc(/N=N/C(=N/NC(=O)c2cc(Cl)ccc2O)c2ccc(N(CCC#N)CCC#N)cc2C)cc1`, for which the GI50 in the assay on COLO 205 is 12.4 µM (inactive); in the assay on EKVX it was 21.5 µM (inactive); with HCC 2998 it was 24.1 µM (inactive); with Hs-578T it was 9.95 µM (inactive); in the assay on KM12, 18.1 µM (inactive); in the assay with M14 it was 30.6 µM (inactive). For the same compound, the GI50 in the assay on MDA-N was 30.6 µM (inactive); with MOLT-4 it was 53.7 µM (inactive); in the assay with NCI-H226, 17.1 µM (inactive); with NCI-H522, 8.95 µM (inactive); with NCI/ADR-RES, 38.4 µM (inactive); in the assay with OVCAR-3, 11.1 µM (inactive). Further, the GI50 in the assay with SF-539 was 18.5 µM (inactive); in the assay with SK-MEL-2 it was 15.7 µM (inactive); with SK-OV-3, 32.9 µM (inactive); in the assay on SNB-75 it was 26.7 µM (inactive); in the assay with T47D, 7.29 µM (inactive); in the assay on U-251 it was 18.2 µM (inactive). The GI50 with UACC-62 is 22.7 µM (inactive).
